Data set [1] has as its system CCRF-CEM. The experiment in a line: Cytotoxicity against human CCRF-CEM cells assessed as reduction in cell viability incubated for 72 hrs by MTS assay. Format: functional, cell-based. (In general: Tetrazolium assays rely on reduction of a dye to a coloured formazan, in cell work by metabolically active cells.)
Data set [2] relates to CEM-DNR. The experiment in a line: Cytotoxicity against human CEM-DNR cells assessed as reduction in cell viability incubated for 72 hrs by MTS assay. Format: functional, cell-based.
Data set [3] has as its system K562. The experiment in a line: Cytotoxicity against human K562 cells assessed as reduction in cell viability incubated for 72 hrs by MTS assay. Format: functional, cell-based. The settings on record: K562, 72 h.
The nature of data set [4]: Cytotoxicity against human K562-Tax cells assessed as reduction in cell viability incubated for 72 hrs by MTS assay. Format: functional, cell-based.
In data set [5] the test system is A549. The data set can be described thus: Cytotoxicity against human A549 cells assessed as reduction in cell viability incubated for 72 hrs by MTS assay. Format: functional, cell-based. The note with it: A549, 72 h.
In data set [6] the test system is HCT-116. The data set can be described thus: Cytotoxicity against human HCT-116 cells assessed as reduction in cell viability incubated for 72 hrs by MTS assay. Format: functional, cell-based. The settings on record: HCT-116, 72 h.
The subject of data set [7] is HCT 116 TP53(-/-). The experiment in a line: Cytotoxicity against human HCT116-p53-null cells assessed as reduction in cell viability incubated for 72 hrs by MTS assay. Format: functional, cell-based.
The test system of data set [8] is U2OS. The experiment in a line: Cytotoxicity against human U2OS cells assessed as reduction in cell viability incubated for 72 hrs by MTS assay. Format: functional, cell-based.
Data set [9] is described as follows: Cytotoxicity against human BJ cells assessed as reduction in cell viability incubated for 72 hrs by MTS assay. Format: toxicity, cell-based.
Data set [10] in a line: Cytotoxicity against human MRC5 cells assessed as reduction in cell viability incubated for 72 hrs by MTS assay. Format: toxicity, cell-based.

Some results are limits rather than exact numbers.

Data on 9 molecules can be found in ChEMBL document CHEMBL5512642, “Novel triterpenoid pyrones, phthalimides and phthalates are selectively cytotoxic in CCRF-CEM cancer cells - Synthesis, potency, and mitochondrial mechanism of action” (Eur J Med Chem, 2024).

As for `C=C(C)[C@@H]1CC[C@]2(C(=O)O)CC[C@]3(C)[C@H](CC[C@@H]4[C@@]5(C)Cc6c(C(F)(F)F)cc7c(c6C(C)(C)[C@@H]5CC[C@]43C)C(=O)N(c3ccccc3)C7=O)[C@@H]12`, the IC50 in [1], in data set [2], in [3], in data set [4], in data set [5] and in data set [6] was > 50 µM each time. In addition, the IC50 in data set [7] and in data set [8] was > 50 µM throughout. Further, the concentration for half-maximal inhibition (IC50) at 72 h in [9] and in data set [10] was > 50 µM throughout.

With `C[C@H]1[C@H](C)CC[C@]2(C(=O)O)CC[C@]3(C)C(=CC[C@@H]4[C@@]5(C)Cc6c(C(F)(F)F)cc7c(c6C(C)(C)[C@@H]5CC[C@]43C)C(=O)N(c3ccccc3)C7=O)[C@H]12`, the IC50 in data set [1], in data set [2], in data set [3], in [4], in data set [5] and in data set [6] was > 50 µM in each case. Also, the IC50 in [7] and in data set [8] was > 50 µM in each case. Moreover, the IC50 at 72 h in data set [9] and in data set [10] was > 50 µM throughout.

Turning to `COC(=O)c1cc(C(F)(F)F)c2c(c1C(=O)OC)C(C)(C)[C@@H]1CC[C@]3(C)[C@H](CC=C4[C@@H]5[C@@H](C)[C@H](C)CC[C@]5(C(=O)O)CC[C@]43C)[C@@]1(C)C2`, the IC50 in [1] was 5.1 µM; in data set [2], > 50 µM; in [3], 28 µM; in [4], > 50 µM; in data set [5], 17 µM; in data set [6], 38 µM. Also, the values for the IC50 in data set [7] and in data set [8] were 26 µM and 24 µM, respectively. Moreover, the IC50 at 72 h in data set [9] and in [10] was > 50 µM in each case.

For `CC(C)[C@@H]1CC[C@]2(C(=O)O)CC[C@]3(C)[C@H](CC[C@@H]4[C@@]5(C)Cc6c(C(F)(F)F)cc7c(c6C(C)(C)[C@@H]5CC[C@]43C)C(=O)N(c3ccccc3)C7=O)[C@@H]12`, the IC50 in [1], in data set [2], in data set [3], in data set [4], in data set [5] and in data set [6] was > 50 µM in each case. Moreover, the IC50 in data set [7] and in [8] was > 50 µM throughout. In addition, the IC50 at 72 h in data set [9] and in [10] was > 50 µM throughout.

Regarding `C=C(C)[C@@H]1CC[C@]2(C(=O)O)CC[C@]3(C)[C@H](CC[C@@H]4[C@@]5(C)CC(C(=O)C(F)(F)F)C(=O)C(C)(C)[C@@H]5CC[C@]43C)[C@@H]12` (some centres undefined), the IC50 turned out to be 7.3 µM in data set [1]; 13 µM in data set [3]; 12 µM in data set [5]; 24 µM in data set [6]; 30 µM in [7]; 30 µM in [8]. The IC50 at 72 h in data set [9] and in [10] was > 50 µM in each case.

Turning to `COC(=O)c1cc(C(F)(F)F)c2c(c1C(=O)OC)C(C)(C)[C@@H]1CC[C@]3(C)[C@H](CC[C@@H]4[C@H]5[C@H](C(C)C)CC[C@]5(C(=O)O)CC[C@]43C)[C@@]1(C)C2`, the IC50 was 5.3 µM in data set [1]; > 50 µM in data set [2]; > 50 µM in data set [3]; > 50 µM in data set [4]; > 50 µM in data set [5]; > 50 µM in data set [6]. The IC50 in [7] is > 50 µM; in [8], 11 µM. Also, the IC50 at 72 h in data set [9] and in [10] was > 50 µM in each case.

`C[C@H]1[C@H](C)CC[C@]2(C(=O)O)CC[C@]3(C)C(=CC[C@@H]4[C@@]5(C)Cc6c(C(F)(F)F)cc(=O)oc6C(C)(C)[C@@H]5CC[C@]43C)[C@H]12`: the IC50 in data set [1] is 6.3 µM; in data set [2] it was 19.5 µM; in [3], 23 µM; in [4] it was 21 µM; in [5] it was 17 µM; in data set [6] it was 25 µM. Further, the figures for the half-maximal inhibitory concentration (IC50) in data set [7] and in [8] were 27 µM and 23 µM, respectively. For the same molecule, the IC50 at 72 h in [9] and in [10] was > 50 µM in each case.

With `CC(C)[C@@H]1CC[C@]2(C(=O)O)CC[C@]3(C)[C@H](CC[C@@H]4[C@@]5(C)CC(C(=O)C(F)(F)F)C(=O)C(C)(C)[C@@H]5CC[C@]43C)[C@@H]12` (some centres undefined), the IC50 came to 8.6 µM in data set [1]; 29 µM in data set [3]; 11 µM in data set [5]; 23 µM in [6]; 26 µM in [7]; 25 µM in data set [8]. For the same molecule, the IC50 at 72 h in data set [9] came to 43 µM; in data set [10], 46 µM.

As to `C[C@H]1[C@H](C)CC[C@]2(C(=O)O)CC[C@]3(C)C(=CC[C@@H]4[C@@]5(C)CC(C(=O)C(F)(F)F)C(=O)C(C)(C)[C@@H]5CC[C@]43C)[C@H]12` (some centres undefined), the IC50 was 8.3 µM in [1]; 23 µM in [3]; 23 µM in [5]; 35 µM in [6]; 43 µM in data set [7]; > 50 µM in data set [8]. The IC50 at 72 h in data set [9] and in [10] was > 50 µM in each case.

What is called IC50 is the concentration that inhibits the measured activity by half.
